# Test results from PubChem BioAssay AID1963966 (Molecular Pharmacology Branch, DTP, NCI, 2024).
# System: 935938-334-R-J1-PDC spheroids with HUVEC/MSC, viability
# Assay: Anticancer human tumor 935938-334-R-J1-PDC patient-derived small intestine adenocarcinoma cell line growth inhibition [PI3K]
# Settings: for viability, T/C: stronger effect = lower value
# In short: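 Spheroid viability read-out. Co-cultures contained the tumor line plus HUVEC and human MSCs. Each agent was paired with a PI3K inhibitor (inavolisib, alpelisib, duvelisib, copanlisib) across half-log dilutions starting at clinical Cmax, or at 10 microM when Cmax was unknown.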
# [1] = curve of first compound, second compound 0.0316 µM
# [2] = curve of first compound, second compound 0.1 µM
# [3] = curve of first compound, second compound 0.316 µM
# [4] = curve of first compound, second compound 1 µM
# [5] = curve of first compound, second compound 3.16 µM
# [6] = curve of first compound, second compound 10 µM
# [7] = second compound 0.0316 µM, first compound 0.000316 µM
# [8] = second compound 0.0316 µM, first compound 0.001 µM
# [9] = second compound 0.0316 µM, first compound 0.00316 µM
# [10] = second compound 0.0316 µM, first compound 0.01 µM
# [11] = second compound 0.0316 µM, first compound 0.0316 µM
# [12] = second compound 0.0316 µM, first compound 0.1 µM
# [13] = second compound 0.1 µM, first compound 0.000316 µM
# [14] = second compound 0.1 µM, first compound 0.001 µM
# [15] = second compound 0.1 µM, first compound 0.00316 µM
# [16] = second compound 0.1 µM, first compound 0.01 µM
# [17] = second compound 0.1 µM, first compound 0.0316 µM
# [18] = second compound 0.1 µM, first compound 0.1 µM
# [19] = second compound 0.316 µM, first compound 0.000316 µM
# [20] = second compound 0.316 µM, first compound 0.001 µM
# [21] = second compound 0.316 µM, first compound 0.00316 µM
# [22] = second compound 0.316 µM, first compound 0.01 µM
# [23] = second compound 0.316 µM, first compound 0.0316 µM
# [24] = second compound 0.316 µM, first compound 0.1 µM
# [25] = second compound 1 µM, first compound 0.000316 µM
# [26] = second compound 1 µM, first compound 0.001 µM
# [27] = second compound 1 µM, first compound 0.00316 µM
# [28] = second compound 1 µM, first compound 0.01 µM
# [29] = second compound 1 µM, first compound 0.0316 µM
# [30] = second compound 1 µM, first compound 0.1 µM
# [31] = second compound 3.16 µM, first compound 0.000316 µM
# [32] = second compound 3.16 µM, first compound 0.001 µM
# [33] = second compound 3.16 µM, first compound 0.00316 µM
# [34] = second compound 3.16 µM, first compound 0.01 µM
# [35] = second compound 3.16 µM, first compound 0.0316 µM
# [36] = second compound 3.16 µM, first compound 0.1 µM
# [37] = second compound 10 µM, first compound 0.000316 µM
# [38] = second compound 10 µM, first compound 0.001 µM
# [39] = second compound 10 µM, first compound 0.00316 µM
# [40] = second compound 10 µM, first compound 0.01 µM
# [41] = second compound 10 µM, first compound 0.0316 µM
# [42] = second compound 10 µM, first compound 0.1 µM
# 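Further: compound exposure lasted seven days before viability was read.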
# 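Wherever viability, T/C is given: percent of vehicle DMSO treated spheroid viability so 100% = untreated.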
compound,measurement,setting,value
CC(C)n1nc(-c2ccc3oc(N)nc3c2)c2c(N)ncnc21 + Cc1nc(NC(=O)N2CCCC2C(N)=O)sc1-c1ccnc(C(C)(C)C(F)(F)F)c1,IC50,[1],> 100 nM
same,IC50,[2],> 100 nM
same,IC50,[3],17 nM
same,IC50,[4],7.19 nM
same,IC50,[5],3.77 nM
same,IC50,[6],< 0.316 nM
same,"viability, T/C",[7],91.5%
same,"viability, T/C",[8],91%
same,"viability, T/C",[9],81.3%
same,"viability, T/C",[10],93.6%
same,"viability, T/C",[11],64.9%
same,"viability, T/C",[12],51.6%
same,"viability, T/C",[13],89%
same,"viability, T/C",[14],82.1%
same,"viability, T/C",[15],75.9%
same,"viability, T/C",[16],92%
same,"viability, T/C",[17],68.7%
same,"viability, T/C",[18],54.5%
same,"viability, T/C",[19],83.4%
same,"viability, T/C",[20],72.2%
same,"viability, T/C",[21],92.8%
same,"viability, T/C",[22],54.1%
same,"viability, T/C",[23],54.9%
same,"viability, T/C",[24],35.5%
same,"viability, T/C",[25],66.5%
same,"viability, T/C",[26],74.3%
same,"viability, T/C",[27],66.8%
same,"viability, T/C",[28],42.5%
same,"viability, T/C",[29],37.6%
same,"viability, T/C",[30],27.1%
same,"viability, T/C",[31],51%
same,"viability, T/C",[32],59.8%
same,"viability, T/C",[33],47.8%
same,"viability, T/C",[34],43%
same,"viability, T/C",[35],27.3%
same,"viability, T/C",[36],28.9%
same,"viability, T/C",[37],35.5%
same,"viability, T/C",[38],37.7%
same,"viability, T/C",[39],61.5%
same,"viability, T/C",[40],35%
same,"viability, T/C",[41],37.3%
same,"viability, T/C",[42],30.1%
CC(C)n1nc(-c2ccc3oc(N)nc3c2)c2c(N)ncnc21 + CC(Nc1ncnc2nc[nH]c12)c1cc2cccc(Cl)c2c(=O)n1-c1ccccc1,IC50,[1],> 100 nM
same,IC50,[2],> 100 nM
same,IC50,[3],> 100 nM
same,IC50,[4],> 100 nM
same,IC50,[5],> 100 nM
same,IC50,[6],71.6 nM
same,"viability, T/C",[7],120%
same,"viability, T/C",[8],104%
same,"viability, T/C",[9],99.8%
same,"viability, T/C",[10],99.1%
same,"viability, T/C",[11],78.6%
same,"viability, T/C",[12],62.9%
same,"viability, T/C",[13],97.3%
same,"viability, T/C",[14],85.9%
same,"viability, T/C",[15],84.5%
same,"viability, T/C",[16],91.3%
same,"viability, T/C",[17],88.3%
same,"viability, T/C",[18],62%
same,"viability, T/C",[19],78.2%
same,"viability, T/C",[20],85.6%
same,"viability, T/C",[21],83.2%
same,"viability, T/C",[22],96.2%
same,"viability, T/C",[23],72.1%
same,"viability, T/C",[24],57.9%
same,"viability, T/C",[25],111%
same,"viability, T/C",[26],91.7%
same,"viability, T/C",[27],81.5%
same,"viability, T/C",[28],84%
same,"viability, T/C",[29],82.4%
same,"viability, T/C",[30],47.6%
same,"viability, T/C",[31],87.5%
same,"viability, T/C",[32],74%
same,"viability, T/C",[33],76.7%
same,"viability, T/C",[34],70.4%
same,"viability, T/C",[35],57.6%
same,"viability, T/C",[36],51.2%
same,"viability, T/C",[37],72.7%
same,"viability, T/C",[38],94.1%
same,"viability, T/C",[39],61.5%
same,"viability, T/C",[40],71.5%
same,"viability, T/C",[41],68.5%
same,"viability, T/C",[42],43%
C#Cc1c(F)ccc2cc(O)cc(-c3ncc4c(N5CC6CCC(C5)N6)nc(OCC56CCCN5CC(F)C6)nc4c3F)c12 (centres undefined),"viability, T/C",compound 3.16 µM,52.5% [middle of 4 runs]
same,"viability, T/C",compound 10 µM,43.6% [middle of 4 runs]
same,IC50,curve of compound,4.79 µM [middle of 4 runs]
CCN1CCN(Cc2ccc(Nc3ncc(F)c(-c4cc(F)c5nc(C)n(C(C)C)c5c4)n3)nc2)CC1 + CC(Nc1ncnc2nc[nH]c12)c1cc2cccc(Cl)c2c(=O)n1-c1ccccc1,IC50,[1],223 nM
same,IC50,[2],246 nM
same,IC50,[3],185 nM
same,IC50,[4],215 nM
same,IC50,[5],164 nM
same,IC50,[6],58.9 nM
same,"viability, T/C",[9],90.2%
same,"viability, T/C",[10],85.8%
same,"viability, T/C",[11],71.4%
same,"viability, T/C",[12],58.9%
same,"viability, T/C","second compound 0.0316 µM, first compound 0.316 µM",46.8%
same,"viability, T/C","second compound 0.0316 µM, first compound 1 µM",37.3%
same,"viability, T/C",[15],95.7%
same,"viability, T/C",[16],92.6%
same,"viability, T/C",[17],73.8%
same,"viability, T/C",[18],62.9%
same,"viability, T/C","second compound 0.1 µM, first compound 0.316 µM",41%
same,"viability, T/C","second compound 0.1 µM, first compound 1 µM",48.2%
same,"viability, T/C",[21],79.4%
same,"viability, T/C",[22],85%
same,"viability, T/C",[23],70.3%
same,"viability, T/C",[24],53.4%
same,"viability, T/C","second compound 0.316 µM, first compound 0.316 µM",49.1%
same,"viability, T/C","second compound 0.316 µM, first compound 1 µM",35.2%
same,"viability, T/C",[27],77%
same,"viability, T/C",[28],86%
same,"viability, T/C",[29],66.7%
same,"viability, T/C",[30],64.4%
same,"viability, T/C","second compound 1 µM, first compound 0.316 µM",43.1%
same,"viability, T/C","second compound 1 µM, first compound 1 µM",31.5%
same,"viability, T/C",[33],74.3%
same,"viability, T/C",[34],68%
same,"viability, T/C",[35],57.5%
same,"viability, T/C",[36],56.8%
same,"viability, T/C","second compound 3.16 µM, first compound 0.316 µM",43.6%
same,"viability, T/C","second compound 3.16 µM, first compound 1 µM",40.1%
same,"viability, T/C",[39],59.3%
same,"viability, T/C",[40],82.1%
same,"viability, T/C",[41],63.4%
same,"viability, T/C",[42],39%
same,"viability, T/C","second compound 10 µM, first compound 0.316 µM",38.3%
same,"viability, T/C","second compound 10 µM, first compound 1 µM",34.6%
